Measurements from patent publication US10352938B2, “Macrocyclic HOPO chelators” (LUMIPHORE, INC., priority 2009, dated 2019).

How the values were obtained:
[1] = UV/visible absorption spectroscopy of Eu(III) complexes in TRIS buffer; format: physicochemical
From the text: Extinction Coefficient. A series of solutions of varied concentrations will be prepared from the solids based on mass and purity. The absorbance of each of these solutions at both 340 nm and at the appropriate acceptor wavelength will be measured and plotted according to Beer's Law (A=εcL where A is absorbance, ε is the extinction coefficient in M^−1 cm^−1, c is concentration, and L is path length in cm) with the fitted linear regression slope equal to […] on a plot of A as a function of C.
Each of the spectra have absorption maxima around 335-340 nm (FIG. 2). Those bands are composed of two electronic transitions; at higher energy, a purely π-π* transition and, at slightly lower energy (around ca. 320 nm), a π-π* transition with some n-π* character, as evidenced previously from TD-DFT calculations. […] This interaction gives maxima blue-shifting from 341 nm for [Eu(H(2,2)-1,2-HOPO)]^0 to 334 nm for [Eu(H(17O5,2)-1,2-HOPO)]^0 (as low as 332 nm for)[Eu(5LIN^Me-1,2HOPO)2]^0).

[2] = Luminescence quantum yield, emission and brightness in aqueous 0.1 M TRIS buffer; format: physicochemical
Method: Quantum Yield. Quantum yield will be measured using established methods. Fluorescence quantum yield Q are measured in diluted solution with an optical density lower than 0.1 using the following equation Qx/Qr=[Ar(λr)/Ax(λx)][nx^2/nr^2][Dx/Dr] were A is the absorbance at the excitation wavelength (λ), n the refractive index and D the integrated luminescence intensity. Subscripts “r” and “x” stand for reference and sample, respectively. References will be a quinine bisulfate in 1N sulfuric acid in aqueous solution (Qt=0.546)^1 and Ru(bpy)3 2C1 complexes in water solution (Qr=0.028)^2 for all complexes. A plot of integrated emission intensity (i.e. Dr) versus absorbance (i.e. Ar(λr)) yields a linear plot with a slope which can be equated to the reference quantum yield Qr. By analogy, for the unknown sample, a plot of integrated emission intensity (i.e. Dx) versus absorbance (i.e. Ax(λx)) yields a linear plot and Qx can then be evaluated. A minimum of at least two independent measurements will be averaged to derive a reliable value.

[3] = Stability titration (pEu) by competitive batch titration using DTPA; format: physicochemical
Method: (§1) Stability Titrations. The general procedure used to determine the pEu values of ligands was adapted from an already described study using Gd and are similar to that already reported for other complexes. Different volumes of a standardized DTPA stock solution were added to solutions of constant ligand, metal, and electrolyte concentrations. Concentrations of complexed ligand in each solution were determined by subtracting the remaining luminescence intensity after addition of DTPA to the initial luminescence intensity at identical pH and those concentrations were used as references for the analysis. Stability of compounds towards mM concentrations of EDTA and divalent cations will be assessed by incubation of the proposed molecules at nM concentration at room temperature in aqueous solutions of test ions. Time Resolved Fluorescent signal will be assessed at the outset of experiment and monitored over a minimum of 24 hours to determine signal change.

[4] = Triplet excited state energy from phosphorescence of Gd complexes at 77K; format: physicochemical; details: solid matrix (methanol/ethanol 1/4), using the Gd complexes
Method: Estimation of the energies of the ligand based triplet excited state were determined using the Gd(III) complexes. Gadolinium was chosen because it is a 4f^7 lanthanide cation having a similar 4f electronic configuration and size as the europium cation (4f^6), but lacking an accessible metal based low energy electronic excited state. At room temperature, only a broad weak emission centered between 380-400 nm can be seen for the Gd(III) complexes. […] At 77K, in solid matrix, an emission band at approx. 500 nm can be seen (FIG. 8). This emission, red-shifted compared to the singlet excited state, can be assigned to phosphorescence from the triplet excited state, lower in energy than the singlet excited state observed at room temperature. Selective time gated phosphorescence spectra (delay 0.1 ms) of the gadolinium complexes at 77K are depicted in FIG. 8.

[5] = Calculation of Eu luminescence parameters (radiative lifetime, rate constants, efficiencies); format: physicochemical
Method: In this equation, the ηISC ηET term is termed the sensitization efficiency, ηsens (ηsens=ηISC ηET). All the luminescence parameters τR (the pure radiative luminescence lifetime), kR and knR (the radiative and non-radiative constant rate) can be deduced. These parameters were calculated for five of the octadentate complexes and the model complex that present only one species in solution at pH=7.4 and are reported in Table 6.

[6] = Stability testing in concentrated solutions of divalent cations and EDTA; format: physicochemical; details: over 24 hrs
Method: as §1
Although these conditions represent concentrations that are in excess of those typically encountered in routine commercial use, they are a benchmark used in the high-throughput screening industry to evaluate these types of molecules. For comparison, stability testing of the commercialized Lumi4-Tb compound is shown (FIG. 3, top) and represents the stability benchmark for these types of molecules.

[7] = Luminescence lifetimes (TRIS buffer, deuterated water, 77K) and inner sphere water number q
Method: Fluorescent decay signals can be acquired using an IBH DataStation Hub photon counting module and data analysis performed using the commercially available DAS 6 decay analysis software package from HORIBA Jobin Yvon IBH. Goodness of fit will be assessed by minimizing the reduced chi squared function, χ2, and a visual inspection of the weighted residuals. Each trace will use at least 10,000 points and the reported lifetime values result from at least three independent measurements.
In addition to the steady state emission spectra, the luminescence quantum yields and luminescence lifetimes of the Eu(III) complexes were also measured in aqueous solution with 0.1 M TRIS buffer pH=7.4 and in deuterated solution to estimate the number of inner sphere water molecule (i.e. q) using the improved Horrock's equations.
Luminescence lifetimes were also determined at 77K, in a solid matrix (Table 5), which have allowed us to determine whether back energy transfer between the donor triplet excited state and the acceptor manifold excited state of the lanthanide is present, or alternately whether quenching via low lying LMCT state occurs.

O=C(NCCN(CCNC(=O)c1cccc(=O)n1O)CCOCCOCCOCCN(CCNC(=O)c1cccc(=O)n1O)CCNC(=O)c1cccc(=O)n1O)c1cccc(=O)n1O [Eu(H11-3)]
ε ([1]; TRIS buffer pH = 7.4): 15,070 M^−1 · cm^−1 | λ^maxabs ([1]; TRIS buffer pH = 7.4): 334 nm | λ ([1]; absorption maximum): 334 nm | ε ([1]; extinction coefficient, in M-1·cm-1): 15,070 | øTot ([2]; 0.1M TRIS buffer pH = 7.4): 0.165 | ϕTot ([2]; aqueous TRIS pH = 7.4, complexes with only one species): 0.165 | quantum yield in aqueous medium ([2]; aqueous medium): 17% | ϕTot ([2]; aqueous quantum yield): 0.165 | Brightness ([2]; at maximum absorption, product of quantum yield and molar absorption coefficient, 0.1 M TRIS pH = 7.4): 2485 M⁻¹ cm⁻¹ | overall quantum yield (in words) ([2]; related to inner-sphere coordinated water): comparatively high quantum yields | pEu ([3]; competitive batch titration using DTPA in 0.1M TRIS pH = 7.4 and 0.1M KCl): 20.4 | pEu value as compared to DTPA ([3]; in words): increased | T0-0 (triplet excited state energy) [4]: 22,120 cm^−1 | sensitization process efficiency [5]: 40.2% | η^Eu ([5]; efficiency of metal centred luminescence): 0.411 | knr ([5]; non-radiative rate constant): 882 s⁻¹ | τrad ([5]; pure radiative luminescence lifetime, aqueous TRIS pH = 7.4): 1630 μs | kr ([5]; radiative rate constant): 615 s⁻¹ | η^sens ([5]; sensitization efficiency): 0.402 | signal change in concentrated solutions of divalent cations and EDTA [6]: significant signal loss | τ ([7]; aqueous TRIS pH = 7.4): 668 μs | τ^D ([7]; deuterated solution, first component): 888 μs | τ^D ([7]; deuterated water, first component): 888 μs | τ ([7]; first (longer) component): 668 μs | q ([7]; inner sphere water molecules, improved Horrock's equations, first species): 0.1 | τ (77K) ([7]; solid matrix at 77K (methanol/ethanol 1/4), first component): 765 μs
